# From the supplement of paper PMC9334596
# Structures can show the parent of a compound that is named as a salt.
# Tested on: mPer2Luc MEF
# Experiment: PER2::LUC luminescence relative to vehicle control (fold of vehicle); higher = higher PER2::LUC reporter signal
# Method: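 Secondary dose-response validation of 72 circadian-modulating compounds in mPer2Luc MEFs, threefold dilution series of six doses from 10 uM down to 0.04 uM. PER2::LUC luminescence read at 24 h and 30 h after treatment, normalised to vehicle (DMSO) control.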
# [1] = time after treatment: 24-hour, concentration: 0.04μM
# [2] = time after treatment: 24-hour, concentration: 0.37μM
# [3] = time after treatment: 24-hour, concentration: 3.33μM
# [4] = time after treatment: 24-hour, concentration: 10μM
# [5] = time after treatment: 30-hour, concentration: 0.04μM
# [6] = time after treatment: 30-hour, concentration: 0.37μM
# [7] = time after treatment: 30-hour, concentration: 3.33μM
# [8] = time after treatment: 30-hour, concentration: 10μM
SMILES,PER2::LUC luminescence [1],PER2::LUC luminescence [2],PER2::LUC luminescence [3],PER2::LUC luminescence [4],PER2::LUC luminescence [5],PER2::LUC luminescence [6],PER2::LUC luminescence [7],PER2::LUC luminescence [8]
CN1CCc2c(c3ccccc3n2Cc2ccc(C(=O)NO)cc2)C1 [Tubastatin A HCl],1.07,1.05,1.05,0.699,0.984,0.982,0.916,0.576
CCCCN(CCCC)C(=O)CN1C[C@H](c2ccc3c(c2)OCO3)[C@@H](C(=O)O)[C@@H]1c1ccc(OC)cc1 [ATRASENTAN],1.16,1.17,1.5,2.41,1.19,1.16,1.47,2.31
OCc1ccc(-c2ccc(-c3ccc(CO)s3)o2)s1,1.37,1.41,1.49,1.24,1.62,1.63,1.68,1.41
Cc1nc(Nc2ncc(C(=O)Nc3c(C)cccc3Cl)s2)cc(N2CCN(CCO)CC2)n1 [Dasatinib],0.438,0.416,0.269,0.074,0.368,0.366,0.244,0.084
Cc1ccc(NC(=O)c2cccc(N(C)C)c2)cc1NC(=O)c1ccc(O)cc1,0.95,0.979,1.07,1.36,0.924,0.932,1.01,1.65
Nc1nc(N)c2nc(-c3cccc(O)c3)cnc2n1,0.893,0.833,0.854,0.608,0.829,0.88,0.803,0.578
CC(C)c1onc(-c2c(Cl)cccc2Cl)c1COc1ccc(/C=C/c2cccc(C(=O)O)c2)c(Cl)c1 [GW4064],1.04,1.08,1.24,1.88,1.08,1.1,1.32,2.19
CC(C)(C)c1ccc(-c2nc3ccccc3[nH]2)cc1 [ZLN005],0.223,0.131,0.076,0.065,0.357,0.204,0.098,0.075
Cc1cc2sc(NC(=O)Cc3ccccc3)nc2cc1Cl [LH-846],1.17,1.3,1.46,1.28,1.37,1.53,1.75,1.26
COc1cc2c(Oc3ccc4[nH]c(C)cc4c3F)ncnc2cc1OCCCN1CCCC1 [Cediranib],0.767,0.585,0.35,0.033,0.662,0.496,0.306,0.019
CCOc1cc2ncc(C#N)c(Nc3ccc(F)c(Cl)c3)c2cc1NC(=O)/C=C/CN(C)C [Pelitinib (EKB-569)],0.891,0.933,0.78,0.334,0.836,0.815,0.618,0.227
CC[C@@H]1C(=O)N(C)c2cnc(Nc3ccc(C(=O)N[C@H]4CC[C@H](N5CCN(CC6CC6)CC5)CC4)cc3OC)nc2N1C(C)C [BI-6727 (Volasertib)],0.71,0.565,0.287,0.074,0.679,0.574,0.326,0.08
COc1cc(NS(C)(=O)=O)ccc1Nc1c2ccccc2nc2ccccc12 [Amsacrine],0.726,0.768,0.663,0.603,0.43,0.474,0.379,0.285
C[C@@H](O[C@H]1OCCN(Cc2nn(P(=O)(O)O)c(=O)[nH]2)[C@H]1c1ccc(F)cc1)c1cc(C(F)(F)F)cc(C(F)(F)F)c1 [Fosaprepitant dimeglumine],1.06,1.02,0.627,0.456,0.978,0.951,0.891,0.849
